Where “and” joins values, the source holds several entries; their conditions need not be identical. Identical values can stand only once. Toxic doses and inconclusive results are not listed. Cut-off read from the data, not from the text of the source: active = T/C of 150% or more; inactive = T/C below 125%.
Test system: L1210 leukemia ip in BDF1 mice, survival T/C
Assay: NCI In Vivo Anticancer Drug Screen. Data for tumor model L1210 Leukemia (intraperitoneal) in B6D2F1 (BDF1) mice
Conditions: endpoint: mean survival time, higher = longer survival
Method in brief: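 Transplanted-tumor mice were given test agent; controls received vehicle only. Survival readings from the two groups were divided (treated over control).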

[1] = dose: 100.0 mg/kg/injection, schedule: Q01DX009 (ip), vehicle: Klucel (hydroxypropylcellulose) (HPC)
[2] = dose: 100.0 mg/kg/injection, schedule: Q04DX003 (ip), vehicle: Klucel (hydroxypropylcellulose) (HPC)
[3] = dose: 200.0 mg/kg/injection, schedule: Q01DX009 (ip), vehicle: Klucel (hydroxypropylcellulose) (HPC)
[4] = dose: 200.0 mg/kg/injection, schedule: Q04DX003 (ip), vehicle: Klucel (hydroxypropylcellulose) (HPC)
[5] = dose: 400.0 mg/kg/injection, schedule: Q01DX009 (ip), vehicle: Klucel (hydroxypropylcellulose) (HPC)
[6] = dose: 400.0 mg/kg/injection, schedule: Q04DX003 (ip), vehicle: Klucel (hydroxypropylcellulose) (HPC)
[7] = dose: 100.0 mg/kg/injection, schedule: Q01DX001 (ip), vehicle: Klucel (hydroxypropylcellulose) (HPC)
[8] = dose: 200.0 mg/kg/injection, schedule: Q01DX001 (ip), vehicle: Klucel (hydroxypropylcellulose) (HPC)
[9] = dose: 400.0 mg/kg/injection, schedule: Q01DX001 (ip), vehicle: Klucel (hydroxypropylcellulose) (HPC)
[10] = dose: 50.0 mg/kg/injection, schedule: Q01DX009 (ip), vehicle: saline with Tween-80
[11] = dose: 100.0 mg/kg/injection, schedule: Q04DX002 (ip), vehicle: Klucel (hydroxypropylcellulose) (HPC)
[12] = dose: 75.0 mg/kg/injection, schedule: Q04DX003 (ip), vehicle: saline
[13] = dose: 150.0 mg/kg/injection, schedule: Q04DX003 (ip), vehicle: saline
[14] = dose: 300.0 mg/kg/injection, schedule: Q04DX003 (ip), vehicle: saline
[15] = dose: 25.0 mg/kg/injection, schedule: Q04DX002 (ip), vehicle: Klucel (hydroxypropylcellulose) (HPC)
[16] = dose: 50.0 mg/kg/injection, schedule: Q04DX002 (ip), vehicle: Klucel (hydroxypropylcellulose) (HPC)
[17] = dose: 50.0 mg/kg/injection, schedule: Q01DX001 (ip), vehicle: Klucel (hydroxypropylcellulose) (HPC)

Measured: T/C

c1ccc2[nH]c(/N=N/c3nc4ccccc4[nH]3)nc2c1
inactive: [1] 95 % of control | [2] 94 % of control | [3] 105 % of control | [4] 98 % of control | [5] 87 % of control | [6] 98 % of control

CN1CCN(/N=N/N2CCN(C)CC2)CC1
inactive: [7] 105 % of control | [8] 101 % of control | [9] 100 % of control

C1=C\C2CC2CCCC/1 (stereo not drawn)
inactive: dose: 12.5 mg/kg/injection, schedule: Q01DX005 (ip), vehicle: saline with Tween-80 86 % of control | dose: 25.0 mg/kg/injection, schedule: Q01DX005 (ip), vehicle: saline with Tween-80 96 % of control | dose: 25.0 mg/kg/injection, schedule: Q01DX009 (ip), vehicle: saline with Tween-80 98 % of control | dose: 50.0 mg/kg/injection, schedule: Q01DX005 (ip), vehicle: saline with Tween-80 89 % of control | [10] 94 % of control | dose: 100.0 mg/kg/injection, schedule: Q01DX009 (ip), vehicle: saline with Tween-80 102 % of control

CCCCCC(C1=NC(C)(C)CC(C)O1)c1ccccc1 (stereo not drawn)
inactive: dose: 100.0 mg/kg/injection, schedule: Q01DX009 (ip), vehicle: saline 103 % of control | dose: 100.0 mg/kg/injection, schedule: Q04DX003 (ip), vehicle: saline sonified 103 % of control | dose: 200.0 mg/kg/injection, schedule: Q01DX009 (ip), vehicle: saline 113 % of control | dose: 200.0 mg/kg/injection, schedule: Q04DX003 (ip), vehicle: saline sonified 117 % of control | dose: 400.0 mg/kg/injection, schedule: Q04DX003 (ip), vehicle: saline sonified 105 % of control

CC1(C)C2CCC1(C)C(OCC(=O)O)C2 (stereo not drawn)
inactive: [11] 96 % of control | dose: 200.0 mg/kg/injection, schedule: Q04DX002 (ip), vehicle: Klucel (hydroxypropylcellulose) (HPC) 121 % of control | dose: 400.0 mg/kg/injection, schedule: Q04DX002 (ip), vehicle: Klucel (hydroxypropylcellulose) (HPC) 102 % of control

COc1ccc(CSC(=S)NNc2ccccc2)cc1
inactive: [1] 96 % of control | [2] 98 % of control | [3] 86 % of control | [4] 93 % of control | [5] 87 % of control | [6] 90 % of control

CN1CCN(P(=O)(c2ccccc2)N2CCN(C)CC2)CC1
inactive: dose: 100.0 mg/kg/injection, schedule: Q04DX002 (ip), vehicle: saline with Tween-80 98 % of control | dose: 200.0 mg/kg/injection, schedule: Q04DX002 (ip), vehicle: saline with Tween-80 98 % of control | dose: 400.0 mg/kg/injection, schedule: Q04DX002 (ip), vehicle: saline with Tween-80 98 % of control

CCc1ccc(NS(=O)(=O)c2ccccc2[N+](=O)[O-])cc1
inactive: [1] 105 % of control | [3] 105 % of control | [5] 113 % of control

Cc1ccc(S(=O)(=O)NC(CO)C(=O)O)cc1 (stereo not drawn)
inactive: dose: 37.5 mg/kg/injection, schedule: Q01DX009 (ip), vehicle: saline 96 % of control | dose: 75.0 mg/kg/injection, schedule: Q01DX001 (ip), vehicle: saline 103 % of control | dose: 75.0 mg/kg/injection, schedule: Q01DX009 (ip), vehicle: saline 98 % of control | [12] 102 % of control | dose: 150.0 mg/kg/injection, schedule: Q01DX001 (ip), vehicle: saline 92 % of control | dose: 150.0 mg/kg/injection, schedule: Q01DX009 (ip), vehicle: saline 106 % of control | [13] 103 % of control | dose: 300.0 mg/kg/injection, schedule: Q01DX001 (ip), vehicle: saline 98 % of control | [14] 102 % of control

NC1CCC(CC2CCCC2)CC1 (stereo not drawn)
inactive: dose: 25.0 mg/kg/injection, schedule: Q04DX003 (ip), vehicle: Klucel (hydroxypropylcellulose) (HPC) 96 % of control | dose: 50.0 mg/kg/injection, schedule: Q04DX003 (ip), vehicle: Klucel (hydroxypropylcellulose) (HPC) 93 % of control | [2] 104 % of control and 90 % of control

NC(=Nc1ccccc1)c1ccc(Cl)cc1
inactive: [15] 93 % of control | [16] 97 % of control | [11] 101 % of control and 115 % of control

O=C(N/N=C\c1ccc2c(c1)OCO2)N/N=C/c1ccc2c(c1)OCO2
inactive: [2] 97 % of control | [4] 100 % of control | [6] 97 % of control

Nc1ccc2cc(O)ccc2c1
inactive: [10] 94 % of control

O=C(/C=C\C(Cl)(Cl)Cl)c1ccccc1
inactive: [7] 93 % of control | [8] 93 % of control | [9] 97 % of control

CC(=O)[C@@]1(O)CC[C@H]2[C@@H]3CCC4=CC(=O)CC[C@]4(C)[C@@]3(F)[C@@H](O)C[C@@]21C
inactive: dose: 100.0 mg/kg/injection, schedule: Q01DX Z (sc), vehicle: steriod suspending solution 98 % of control | dose: 200.0 mg/kg/injection, schedule: Q01DX Z (sc), vehicle: steriod suspending solution 98 % of control | dose: 400.0 mg/kg/injection, schedule: Q01DX Z (sc), vehicle: steriod suspending solution 100 % of control

OC1(c2ccccc2)CCN(Cc2ccccc2)CC1
inactive: dose: 25.0 mg/kg/injection, schedule: Q01DX001 (ip), vehicle: Klucel (hydroxypropylcellulose) (HPC) 106 % of control | [17] 118 % of control | [7] 93 % of control and 107 % of control

Cc1ccc2c(c1)C=C/C(=C/c1cc[n+](C)c3ccccc13)N2C
inactive: dose: 100.0 mg/kg/injection, schedule: Q01DX001 (ip), vehicle: other 97 % of control | dose: 200.0 mg/kg/injection, schedule: Q01DX001 (ip), vehicle: other 92 % of control

CCCCCCCCCCC(CCCCCCCCCC)CC1CCCCC1
inactive: dose: 100.0 mg/kg/injection, schedule: Q01DX001 (ip), vehicle: saline + alcohol 102 % of control | dose: 200.0 mg/kg/injection, schedule: Q01DX001 (ip), vehicle: saline + alcohol 94 % of control | dose: 400.0 mg/kg/injection, schedule: Q01DX001 (ip), vehicle: saline + alcohol 100 % of control

COC(=O)C1=C2Nc3ccccc3C23CCN2CC4(CC5CC67CCOC6CCN6CCC8(c9cccc(OC)c9N(C4)C58O)C67)C4OCCC4(C1)C23 (stereo not drawn)
inactive: [4] 88 % of control | [6] 93 % of control

CCOC(C(=O)N(C)CCN(C)CCc1ccccc1)(c1ccccc1)c1ccccc1
inactive: dose: 100.0 mg/kg/injection, schedule: Q01DX001 (ip), vehicle: saline 105 % of control | dose: 200.0 mg/kg/injection, schedule: Q01DX001 (ip), vehicle: saline 94 % of control

COC(=O)N1C=CC2C=CC1C(C#N)(C#N)C2(C#N)C#N (stereo not drawn)
inactive: dose: 12.5 mg/kg/injection, schedule: Q04DX002 (ip), vehicle: Klucel (hydroxypropylcellulose) (HPC) 98 % of control | [15] 98 % of control | [16] 110 % of control

Cc1c2cnccc2c(C)c2c1c1ccccc1n2C(C)C
inactive: dose: 37.5 mg/kg/injection, schedule: Q04DX003 (ip), vehicle: saline 100 % of control | dose: 62.5 mg/kg/injection, schedule: Q01DX009 (ip), vehicle: saline with Tween-80 110 % of control | [12] 101 % of control | [13] 104 % of control | [14] 124 % of control

Clc1cc(NCc2ccco2)ncn1
inactive: [17] 103 % of control | [7] 97 % of control | [8] 97 % of control
